According to patent US20090226527A1, “Particulate-stabilized injectable pharmacutical compositions of posaconazole” (priority 2004, published 2009):
≈ marks a conversion by molar mass, not a printed value.

System: infectious agents (strains tested)
Assay: organism not typed
Assay type: cell-based

Q: Which MIC (Absidia spp, read-out: Geometric Mean MIC) does the source give for `C[C@@H](c1ncncc1F)[C@](O)(Cn1cncn1)c1ccc(F)cc1F` [Voriconazole] here?
A: 40.3 µg/mL (≈ 115 µM)

Q: What about the MIC (Absidia spp, read-out: MIC[90]) of the same compound?
A: 8 to 128 µg/mL (≈ 22.9 to 366 µM)

Q: What about the MIC (Apophysomyces spp, read-out: Geometric Mean MIC) of the same compound?
A: 42.2 µg/mL (≈ 121 µM)

Q: And the MIC (Apophysomyces spp, read-out: MIC[90])?
A: 16 to 128 µg/mL (≈ 45.8 to 366 µM)

Q: What about the MIC (Aspergillus flavus, read-out: Geometric Mean MIC) of the same compound?
A: 0.339 µg/mL (≈ 0.97 µM)

Q: What about the MIC (Aspergillus flavus, read-out: MIC[90]) of the same compound?
A: 1 µg/mL (≈ 2.86 µM)

Q: What about the MIC (Aspergillus fumigatus, read-out: Geometric Mean MIC) of the same compound?
A: 0.282 µg/mL (≈ 0.807 µM)

Q: What about the MIC (Aspergillus fumigatus, read-out: MIC[90]) of the same compound?
A: 0.5 µg/mL (≈ 1.43 µM)

Q: And the MIC (Aspergillus nidulans, read-out: Geometric Mean MIC)?
A: 0.07 µg/mL (≈ 0.2 µM)

Q: What about the MIC (Aspergillus nidulans, read-out: MIC[90]) of the same compound?
A: 0.031 to 0.125 µg/mL (≈ 0.0887 to 0.358 µM)

Q: And the MIC (Aspergillus niger, read-out: Geometric Mean MIC)?
A: 0.48 µg/mL (≈ 1.37 µM)

Q: And the MIC (Aspergillus niger, read-out: MIC[90])?
A: 2 µg/mL (≈ 5.73 µM)

Q: And the MIC (Aspergillus sydowii, read-out: Geometric Mean MIC)?
A: 0.397 µg/mL (≈ 1.14 µM)

Q: And the MIC (Aspergillus sydowii, read-out: MIC[90])?
A: 0.25 to 1 µg/mL (≈ 0.716 to 2.86 µM)

Q: And the MIC (Aspergillus terreus, read-out: Geometric Mean MIC)?
A: 0.312 µg/mL (≈ 0.893 µM)

Q: And the MIC (Aspergillus terreus, read-out: MIC[90])?
A: 0.5 µg/mL (≈ 1.43 µM)

Q: And the MIC (Aspergillus ustus, read-out: Geometric Mean MIC)?
A: 1.19 µg/mL (≈ 3.4 µM)

Q: What about the MIC (Aspergillus ustus, read-out: MIC[90]) of the same compound?
A: 0.25 to 2 µg/mL (≈ 0.716 to 5.73 µM)

Q: And the MIC (Bipolaris spp, read-out: Geometric Mean MIC)?
A: 1 µg/mL (≈ 2.86 µM)

Q: What about the MIC (Bipolaris spp, read-out: MIC[90]) of the same compound?
A: 1 µg/mL (≈ 2.86 µM)

Q: And the MIC (Bjerkandera adusta, read-out: Geometric Mean MIC)?
A: 0.216 µg/mL (≈ 0.618 µM)

Q: And the MIC (Bjerkandera adusta, read-out: MIC[90])?
A: 0.25 µg/mL (≈ 0.716 µM)

Q: And the MIC (Candida albicans, read-out: Geometric Mean MIC)?
A: 0.021 µg/mL (≈ 0.0601 µM)

Q: What about the MIC (Candida albicans, read-out: MIC[90]) of the same compound?
A: 0.063 µg/mL (≈ 0.18 µM)

Q: And the MIC (Candida dubliniensis, read-out: Geometric Mean MIC)?
A: 0.028 µg/mL (≈ 0.0802 µM)

Q: And the MIC (Candida dubliniensis, read-out: MIC[90])?
A: 0.125 µg/mL (≈ 0.358 µM)

Q: And the MIC (Candida tropicalis, read-out: Geometric Mean MIC)?
A: 0.075 µg/mL (≈ 0.215 µM)

Q: And the MIC (Candida tropicalis, read-out: MIC[90])?
A: 0.5 µg/mL (≈ 1.43 µM)

Q: And the MIC (Clavispora lusitaniae, Candida lusitaniae, read-out: Geometric Mean MIC)?
A: 0.023 µg/mL (≈ 0.0658 µM)

Q: And the MIC (Clavispora lusitaniae, Candida lusitaniae, read-out: MIC[90])?
A: 0.063 µg/mL (≈ 0.18 µM)

Q: And the MIC (Cryptococcus neoformans, read-out: Geometric Mean MIC)?
A: 0.054 µg/mL (≈ 0.155 µM)

Q: What about the MIC (Cryptococcus neoformans, read-out: MIC[90]) of the same compound?
A: 0.125 µg/mL (≈ 0.358 µM)

Q: What about the MIC (Curvularia spp, read-out: Geometric Mean MIC) of the same compound?
A: 0.125 µg/mL (≈ 0.358 µM)

Q: And the MIC (Curvularia spp, read-out: MIC[90])?
A: 0.125 µg/mL (≈ 0.358 µM)

Q: What about the MIC (Debaryomyces hansenii, Candida famata, read-out: Geometric Mean MIC) of the same compound?
A: 0.072 µg/mL (≈ 0.206 µM)

Q: What about the MIC (Debaryomyces hansenii, Candida famata, read-out: MIC[90]) of the same compound?
A: 0.008 to 0.5 µg/mL (≈ 0.0229 to 1.43 µM)

Q: And the MIC (Diutina rugosa, Candida rugosa, read-out: Geometric Mean MIC)?
A: 0.072 µg/mL (≈ 0.206 µM)

Q: What about the MIC (Diutina rugosa, Candida rugosa, read-out: MIC[90]) of the same compound?
A: 0.5 µg/mL (≈ 1.43 µM)

Q: And the MIC (Dujonia zeylanoides, Candida zeylanoides, read-out: Geometric Mean MIC)?
A: 0.039 µg/mL (≈ 0.112 µM)

Q: What about the MIC (Dujonia zeylanoides, Candida zeylanoides, read-out: MIC[90]) of the same compound?
A: 0.008 to 0.125 µg/mL (≈ 0.0229 to 0.358 µM)

Q: And the MIC (Epidermophyton floccosum, read-out: Geometric Mean MIC)?
A: 0.015 µg/mL (≈ 0.0429 µM)

Q: What about the MIC (Epidermophyton floccosum, read-out: MIC[90]) of the same compound?
A: 0.016 µg/mL (≈ 0.0458 µM)

Q: What about the MIC (Exophiala dermatidis, read-out: Geometric Mean MIC) of the same compound?
A: 0.063 µg/mL (≈ 0.18 µM)

Q: And the MIC (Exophiala dermatidis, read-out: MIC[90])?
A: 0.063 µg/mL (≈ 0.18 µM)

Q: What about the MIC (Exophiala dermatitidis, Wangiella dermatitidis, read-out: Geometric Mean MIC) of the same compound?
A: 1 µg/mL (≈ 2.86 µM)

Q: And the MIC (Exophiala dermatitidis, Wangiella dermatitidis, read-out: MIC[90])?
A: 1 µg/mL (≈ 2.86 µM)

Q: And the MIC (Exophiala jeanselmei, read-out: Geometric Mean MIC)?
A: 0.794 µg/mL (≈ 2.27 µM)

Q: What about the MIC (Exophiala jeanselmei, read-out: MIC[90]) of the same compound?
A: 0.5 to 1 µg/mL (≈ 1.43 to 2.86 µM)

Q: And the MIC (Fonsecae pedrosoi, read-out: Geometric Mean MIC)?
A: 0.5 µg/mL (≈ 1.43 µM)

Q: And the MIC (Fonsecae pedrosoi, read-out: MIC[90])?
A: 0.5 µg/mL (≈ 1.43 µM)

Q: What about the MIC (Fusarium spp, read-out: Geometric Mean MIC) of the same compound?
A: 4.42 µg/mL (≈ 12.6 µM)

Q: What about the MIC (Fusarium spp, read-out: MIC[90]) of the same compound?
A: 16 µg/mL (≈ 45.8 µM)

Q: What about the MIC (Kluyveromyces marxianus, Candida kefyr, read-out: Geometric Mean MIC) of the same compound?
A: 0.031 µg/mL (≈ 0.0887 µM)

Q: What about the MIC (Kluyveromyces marxianus, Candida kefyr, read-out: MIC[90]) of the same compound?
A: 0.031 µg/mL (≈ 0.0887 µM)

Q: And the MIC (Lodderomyces parapsilosis, Candida parapsilosis, read-out: Geometric Mean MIC)?
A: 0.036 µg/mL (≈ 0.103 µM)

Q: What about the MIC (Lodderomyces parapsilosis, Candida parapsilosis, read-out: MIC[90]) of the same compound?
A: 0.125 µg/mL (≈ 0.358 µM)

Q: What about the MIC (Meyerozyma guilliermondii, Candida guilliermondii, read-out: Geometric Mean MIC) of the same compound?
A: 0.112 µg/mL (≈ 0.321 µM)

Q: What about the MIC (Meyerozyma guilliermondii, Candida guilliermondii, read-out: MIC[90]) of the same compound?
A: 8 µg/mL (≈ 22.9 µM)

Q: What about the MIC (Microsporum canis, read-out: Geometric Mean MIC) of the same compound?
A: 0.018 µg/mL (≈ 0.0515 µM)

Q: What about the MIC (Microsporum canis, read-out: MIC[90]) of the same compound?
A: 0.031 µg/mL (≈ 0.0887 µM)

Q: What about the MIC (Mucor spp, read-out: Geometric Mean MIC) of the same compound?
A: 24.7 µg/mL (≈ 70.6 µM)

Q: What about the MIC (Mucor spp, read-out: MIC[90]) of the same compound?
A: 1 to 128 µg/mL (≈ 2.86 to 366 µM)

Q: And the MIC (Nakaseomyces glabratus, Candida glabrata, read-out: Geometric Mean MIC)?
A: 0.305 µg/mL (≈ 0.873 µM)

Q: And the MIC (Nakaseomyces glabratus, Candida glabrata, read-out: MIC[90])?
A: 2 µg/mL (≈ 5.73 µM)

Q: What about the MIC (Paecilomyces spp, read-out: Geometric Mean MIC) of the same compound?
A: 0.324 µg/mL (≈ 0.928 µM)

Q: And the MIC (Paecilomyces spp, read-out: MIC[90])?
A: 0.031 to 2 µg/mL (≈ 0.0887 to 5.73 µM)

Q: What about the MIC (Papiliotrema laurentii, Cryptococcus laurentii, read-out: Geometric Mean MIC) of the same compound?
A: 0.25 µg/mL (≈ 0.716 µM)

Q: What about the MIC (Papiliotrema laurentii, Cryptococcus laurentii, read-out: MIC[90]) of the same compound?
A: 0.25 µg/mL (≈ 0.716 µM)

Q: And the MIC (Penicillium spp, read-out: Geometric Mean MIC)?
A: 0.622 µg/mL (≈ 1.78 µM)

Q: And the MIC (Penicillium spp, read-out: MIC[90])?
A: 2 µg/mL (≈ 5.73 µM)

Q: And the MIC (Pichia kudriavzevii, Candida krusei, read-out: Geometric Mean MIC)?
A: 0.346 µg/mL (≈ 0.991 µM)

Q: And the MIC (Pichia kudriavzevii, Candida krusei, read-out: MIC[90])?
A: 0.5 µg/mL (≈ 1.43 µM)

Q: And the MIC (Rhizomucor spp, read-out: Geometric Mean MIC)?
A: 2 µg/mL (≈ 5.73 µM)

Q: And the MIC (Rhizomucor spp, read-out: MIC[90])?
A: 2 µg/mL (≈ 5.73 µM)

Q: And the MIC (Rhizopus spp, read-out: Geometric Mean MIC)?
A: 8 µg/mL (≈ 22.9 µM)

Q: What about the MIC (Rhizopus spp, read-out: MIC[90]) of the same compound?
A: 1 to 32 µg/mL (≈ 2.86 to 91.6 µM)

Q: And the MIC (Saccharomyces cerevisiae, read-out: Geometric Mean MIC)?
A: 0.05 µg/mL (≈ 0.143 µM)

Q: What about the MIC (Saccharomyces cerevisiae, read-out: MIC[90]) of the same compound?
A: 0.125 µg/mL (≈ 0.358 µM)

Q: And the MIC (Scedosporium apiospermum, read-out: Geometric Mean MIC)?
A: 0.098 µg/mL (≈ 0.281 µM)

Q: What about the MIC (Scedosporium apiospermum, read-out: MIC[90]) of the same compound?
A: 0.5 µg/mL (≈ 1.43 µM)

Q: What about the MIC (Scedosporium boydii, Pseudallescheria boydii, read-out: Geometric Mean MIC) of the same compound?
A: 0.25 µg/mL (≈ 0.716 µM)

Q: And the MIC (Scedosporium boydii, Pseudallescheria boydii, read-out: MIC[90])?
A: 0.125 to 0.5 µg/mL (≈ 0.358 to 1.43 µM)

Q: What about the MIC (Trichophyton mentagrophytes, read-out: Geometric Mean MIC) of the same compound?
A: 0.038 µg/mL (≈ 0.109 µM)

Q: And the MIC (Trichophyton mentagrophytes, read-out: MIC[90])?
A: 0.25 µg/mL (≈ 0.716 µM)

Q: And the MIC (Trichophyton rubrum, read-out: Geometric Mean MIC)?
A: 0.021 µg/mL (≈ 0.0601 µM)

Q: And the MIC (Trichophyton rubrum, read-out: MIC[90])?
A: 0.063 µg/mL (≈ 0.18 µM)

Q: What about the MIC (Trichophyton tonsurans, read-out: Geometric Mean MIC) of the same compound?
A: 0.043 µg/mL (≈ 0.123 µM)

Q: And the MIC (Trichophyton tonsurans, read-out: MIC[90])?
A: 0.063 µg/mL (≈ 0.18 µM)

Q: What about the MIC (Trichosporon spp, read-out: Geometric Mean MIC) of the same compound?
A: 0.125 µg/mL (≈ 0.358 µM)

Q: What about the MIC (Trichosporon spp, read-out: MIC[90]) of the same compound?
A: 0.125 µg/mL (≈ 0.358 µM)
